Test [1] deals with Mus musculus. The experiment in a line: Antipsychotic-like activity in wild type mouse assessed as inhibition of PCP-induced hyperlocomotion at 2 mg/kg, ip administered 30 min prior to PCP challenge measured after 90 min. It counts as functional, organism-based. Set-up: dose 2 mg/kg.
The target in test [2] is D(1A) dopamine receptor (Homo sapiens) (UniProt P21728). The experiment in a line: Binding affinity to D1 receptor.
In test [3] the test system is Mus musculus. In words: Antipsychotic-like activity in beta- arrestin-2 knockout mouse assessed as inhibition of PCP-induced hyperlocomotion at 2 mg/kg, ip administered 30 min prior to PCP challenge measured after 90 min. The format is functional, organism-based. More on the design: dose 2 mg/kg.
For test [4], the target named is D(1B) dopamine receptor (Homo sapiens) (UniProt P21918). In words: Binding affinity to D5 receptor.
D(1B) dopamine receptor (Homo sapiens), sequence (P21918 whole entry): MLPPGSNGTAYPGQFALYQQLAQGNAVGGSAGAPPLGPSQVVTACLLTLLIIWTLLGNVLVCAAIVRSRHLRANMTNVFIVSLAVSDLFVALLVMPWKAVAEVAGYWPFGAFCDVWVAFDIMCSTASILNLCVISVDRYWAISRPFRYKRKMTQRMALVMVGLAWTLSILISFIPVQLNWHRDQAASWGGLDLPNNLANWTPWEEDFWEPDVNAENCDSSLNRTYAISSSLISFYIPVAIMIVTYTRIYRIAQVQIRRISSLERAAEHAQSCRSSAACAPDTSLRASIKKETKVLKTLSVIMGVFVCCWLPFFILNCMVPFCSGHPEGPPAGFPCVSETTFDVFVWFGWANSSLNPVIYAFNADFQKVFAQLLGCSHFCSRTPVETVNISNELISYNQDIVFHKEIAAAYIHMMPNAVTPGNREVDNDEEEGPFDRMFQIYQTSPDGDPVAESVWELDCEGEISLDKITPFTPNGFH
The target in test [5] is T1, D(2) dopamine receptor (Homo sapiens, UniProt P14416). The experiment in a line: Agonist activity at human D2L receptor expressed in HEK293T cells coexpressing Gi subunit assessed as inhibition of isoproterenol-stimulated cAMP production by luminescence assay. The format is functional, cell-based, HEK-293T. A general note: cAMP levels reflect the balance of adenylyl cyclase and phosphodiesterase activity.
T1 sequence (P14416 whole entry): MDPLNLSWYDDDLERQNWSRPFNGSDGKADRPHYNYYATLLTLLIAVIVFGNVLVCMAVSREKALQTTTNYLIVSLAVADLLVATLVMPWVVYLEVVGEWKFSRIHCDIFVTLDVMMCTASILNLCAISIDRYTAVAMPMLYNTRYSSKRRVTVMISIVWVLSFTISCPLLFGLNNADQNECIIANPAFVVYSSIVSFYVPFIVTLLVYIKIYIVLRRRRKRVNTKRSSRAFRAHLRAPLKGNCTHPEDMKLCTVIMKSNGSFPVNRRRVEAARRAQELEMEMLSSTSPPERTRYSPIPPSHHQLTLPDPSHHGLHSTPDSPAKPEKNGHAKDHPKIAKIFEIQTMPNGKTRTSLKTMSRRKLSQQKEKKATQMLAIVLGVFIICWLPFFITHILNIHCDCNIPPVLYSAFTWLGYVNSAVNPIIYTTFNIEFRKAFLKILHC

Test [6] concerns the target T1, D(2) dopamine receptor. The note with it: HTLA, at 6 µM.
Description: Agonist activity at D2L receptor in human HTLA cells assessed as beta arrestin recruitment at 6 uM after 18 hrs by luminescence assay relative to Quinpirole
In test [7] the target is T1, D(2) dopamine receptor. The experiment in a line: Agonist activity at D2L receptor in human HTLA cells assessed as beta arrestin recruitment at 6 uM after 18 hrs by luminescence assay. It counts as functional, cell-based. In general terms: Recruitment of arrestin is a read-out of receptor activation apart from second messengers.
For test [8], the target named is T1, D(2) dopamine receptor. The experiment in a line: Displacement of [3H]N-methylspiperone from human D2L receptor expressed in CHO cells after 1.5 hrs by microbeta counting method. The format is cell-based.
Test [9] has as its target T1, D(2) dopamine receptor. The experiment in a line: Partial agonist activity at D2L receptor in human HTLA cells assessed as beta arrestin recruitment at 6 uM after 18 hrs by luminescence assay. The format is functional, cell-based.
The target of test [10] is T1, D(2) dopamine receptor. The note with it: HTLA, 6 uM.
Description: Partial agonist activity at D2L receptor in human HTLA cells assessed as beta arrestin recruitment at 6 uM after 18 hrs by luminescence assay relative to Quinpirole
Test [11] addresses D(3) dopamine receptor (Homo sapiens) (UniProt P35462). In words: Binding affinity to D3 receptor.
Test [12] has as its target T2, D(4) dopamine receptor (Homo sapiens) (UniProt P21917).
T2 sequence (whole entry): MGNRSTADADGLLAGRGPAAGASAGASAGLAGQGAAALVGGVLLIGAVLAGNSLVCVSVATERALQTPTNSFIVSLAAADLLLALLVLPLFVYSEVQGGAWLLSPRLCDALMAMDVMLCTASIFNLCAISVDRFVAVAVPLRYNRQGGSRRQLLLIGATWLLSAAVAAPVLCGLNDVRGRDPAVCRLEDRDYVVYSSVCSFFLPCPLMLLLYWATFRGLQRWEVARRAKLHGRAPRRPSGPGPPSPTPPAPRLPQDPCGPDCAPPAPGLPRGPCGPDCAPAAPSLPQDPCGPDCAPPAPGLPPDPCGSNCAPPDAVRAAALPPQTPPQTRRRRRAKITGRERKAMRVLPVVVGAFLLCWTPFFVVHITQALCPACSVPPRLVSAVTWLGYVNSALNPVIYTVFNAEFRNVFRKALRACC
The experiment in a line: Binding affinity to D4 receptor.

Calls of active or inactive are those of the source. No cut-off for these calls is given here.

D(1A) dopamine receptor (Homo sapiens), sequence (P21728 whole entry): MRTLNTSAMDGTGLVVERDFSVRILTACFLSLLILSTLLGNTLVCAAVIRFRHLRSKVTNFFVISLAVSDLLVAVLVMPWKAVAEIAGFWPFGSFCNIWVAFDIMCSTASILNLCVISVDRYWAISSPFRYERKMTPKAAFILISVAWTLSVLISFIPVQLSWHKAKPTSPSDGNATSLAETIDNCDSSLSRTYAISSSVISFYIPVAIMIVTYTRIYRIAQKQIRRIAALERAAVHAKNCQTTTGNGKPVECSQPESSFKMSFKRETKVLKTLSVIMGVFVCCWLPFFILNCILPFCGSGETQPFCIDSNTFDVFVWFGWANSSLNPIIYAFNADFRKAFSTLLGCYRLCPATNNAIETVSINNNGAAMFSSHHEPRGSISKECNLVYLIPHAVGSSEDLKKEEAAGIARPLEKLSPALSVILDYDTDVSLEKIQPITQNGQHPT
D(3) dopamine receptor (Homo sapiens), sequence (P35462 whole entry): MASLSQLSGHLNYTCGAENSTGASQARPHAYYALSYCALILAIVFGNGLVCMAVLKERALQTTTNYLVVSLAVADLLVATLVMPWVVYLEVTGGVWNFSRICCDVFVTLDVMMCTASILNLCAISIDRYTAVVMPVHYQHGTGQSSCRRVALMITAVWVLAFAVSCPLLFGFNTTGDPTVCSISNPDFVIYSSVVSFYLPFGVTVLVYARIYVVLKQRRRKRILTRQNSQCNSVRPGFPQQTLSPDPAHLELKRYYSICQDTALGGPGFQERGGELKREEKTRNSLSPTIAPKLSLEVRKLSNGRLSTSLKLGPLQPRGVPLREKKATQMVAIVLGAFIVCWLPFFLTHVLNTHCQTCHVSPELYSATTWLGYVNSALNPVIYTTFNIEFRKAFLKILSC

On to `O=C1CCc2ccc(OCCCCN3CCCN(c4cccc(Cl)c4Cl)CC3)cc2N1`, for which the inhibition result in the test on Mus musculus [1] is “Active”. Besides, the outcome in test [2] and in test [4] was inactive. Besides, the inhibition result with Mus musculus [3] is “inactive”.
Turning to `O=C1CCc2ccc(OCCCCN3CCN(c4cccc(Cl)c4Cl)CC3)nc2N1`, the EC50 (commonly the concentration that produces a half-maximal response) on D(2) dopamine receptor [5] (hek-293t) is given as “Not Active”.
As to `CCOc1ccc(N2CCN(CCCCOc3ccc4c(c3)NC(=O)CC4)CC2)cc1`, the EC50 on D(2) dopamine receptor [5] (read-out: EC50) came to 251 nM; at D(2) dopamine receptor [7] it was 50 nM. In addition, at D(2) dopamine receptor [6], the Emax (as a rule, the greatest response seen or fitted, relative to the assay's reference) was found to be 82%. In addition, at D(2) dopamine receptor [8], the Ki – broadly, the dissociation constant of the complex between target and ligand, obtained from inhibition or displacement – stood at 53 nM.
In the case of `O=C1NCCc2ccc(OCCCN3CCN(c4cccc(Cl)c4Cl)CC3)cc21`, the concentration for a half-maximal effect (EC50) entry was “Not Active” at D(2) dopamine receptor [5] (hek-293t) and 20 nM on D(2) dopamine receptor [7].
`O=C1CCc2ccc(OC[C@H]3CC[C@H](CN4CCN(c5cccc(Cl)c5Cl)CC4)CC3)cc2N1`: the results for the EC50 result at D(2) dopamine receptor [5] (hek-293t) and at D(2) dopamine receptor [9] were “Not Active” and 1580 nM, respectively. At D(2) dopamine receptor [10], the Emax came to 45%. Besides, the affinity on D(2) dopamine receptor [8], expressed as Ki, was 145 nM.
Take `O=C1CCc2ccc(OCCCCN3CCCN(c4cccc(Cl)c4Cl)CC3)nc2N1`: the EC50 entry on D(2) dopamine receptor [5] (hek-293t) is “Not Active”; on D(2) dopamine receptor [7], 1.6 nM.
With `Clc1cccc(N2CCCN(CCCCOc3ccc4scnc4c3)CC2)c1Cl`, the EC50 result at D(2) dopamine receptor [5] (hek-293t) is “Not Active”.
For `O=C1CCc2ccc(Oc3ccc(CN4CCN(c5cccc(Cl)c5Cl)CC4)cc3)cc2N1`, the EC50 result at D(2) dopamine receptor [5] (hek-293t) is “Not Active”; at D(2) dopamine receptor [9], 501 nM.
With `O=c1[nH]c2ccc(OCCCCN3CCN(c4cccc(Cl)c4Cl)CC3)cc2[nH]1`, on D(2) dopamine receptor [5] (hek-293t), the EC50 result is listed as “Not Active”.
Consider `O=c1[nH]c2ccc(OCCCCN3CCC(c4cccc(Cl)c4Cl)CC3)cc2[nH]1`, for which the EC50 result on D(2) dopamine receptor [5] (hek-293t) was “Not Active”.
Consider `Clc1cccc(N2CCN(CCCCOc3ccc4scnc4c3)CC2)c1Cl`, for which the EC50 entry was “Not Active” on D(2) dopamine receptor [5] (hek-293t) and 63 nM at D(2) dopamine receptor [9].
Turning to `Clc1cccc(C2CCN(CCCOc3ccc4scnc4c3)CC2)c1Cl`, the figures for the EC50 result on D(2) dopamine receptor [5] (hek-293t) and at D(2) dopamine receptor [7] were “Not Active” and 50 nM, respectively.
The compound `Clc1cccc(N2CCCN(CCCOc3ccc4scnc4c3)CC2)c1Cl` registered an Emax on D(2) dopamine receptor [6] of 71%.
Turning to `Clc1cccc(N2CCN(CCCOc3ccc4scnc4c3)CC2)c1Cl`, the EC50 result was “Not Active” at D(2) dopamine receptor [5] (hek-293t) and 126 nM at D(2) dopamine receptor [7].
As to `Clc1cccc(C2CCN(CCCCOc3ccc4scnc4c3)CC2)c1Cl`, the concentration for a half-maximal effect (EC50) result on D(2) dopamine receptor [5] (hek-293t) was “Not Active”; at D(2) dopamine receptor [7] it was 79 nM. Further, at D(2) dopamine receptor [6], the Emax was found to be 78%. In the test with Mus musculus [1], the inhibition result was “Active”. For the same compound, the result in test [2] and in [4] was inactive. In addition, the outcome in test [11] and in test [12] was Active. For the same compound, the inhibition result with Mus musculus [3] was “inactive”.
As for `O=C1NCCc2ccc(OCCCN3CCCN(c4cccc(Cl)c4Cl)CC3)cc21`, the EC50 entry on D(2) dopamine receptor [5] (hek-293t) was “Not Active”; at D(2) dopamine receptor [7] it was 6.3 nM.
For `Clc1cccc(N2CCN(CCCOc3ccc4cn[nH]c4c3)CC2)c1Cl`, the EC50 entry was “Not Active” on D(2) dopamine receptor [5] (hek-293t) and 200 nM at D(2) dopamine receptor [7].
Regarding `Clc1cccc(N2CCN(CCCCOc3ccc4cn[nH]c4c3)CC2)c1Cl`, the results for the EC50 entry on D(2) dopamine receptor [5] (hek-293t) and on D(2) dopamine receptor [9] were “Not Active” and 100 nM, respectively.
Regarding `CCOc1cccc(N2CCN(CCCCOc3ccc4c(c3)NC(=O)CC4)CC2)c1`, the values for the EC50 on D(2) dopamine receptor [5] (read-out: EC50) and on D(2) dopamine receptor [7] were 158 nM and 10 nM, respectively. Also, the Emax at D(2) dopamine receptor [6] was determined as 40%. In addition, the affinity on D(2) dopamine receptor [8] corresponds to a Ki of 21 nM.
The matching figures for `CC(C)Oc1ccccc1N1CCN(CCCCOc2ccc3c(c2)NC(=O)CC3)CC1`: 25 nM, 2 nM, 63% and 3.1 nM.
`O=C1CCc2ccc(Oc3cccc(CN4CCN(c5cccc(Cl)c5Cl)CC4)c3)cc2N1`: the results for the EC50 entry at D(2) dopamine receptor [5] (hek-293t) and on D(2) dopamine receptor [9] were “Not Active” and 316 nM, respectively.
In the case of `O=C1NCCc2ccc(OCCCCN3CCN(c4cccc(Cl)c4Cl)CC3)cc21`, the EC50 entry is “Not Active” on D(2) dopamine receptor [5] (hek-293t) and 4 nM on D(2) dopamine receptor [9].
